Experimental findings from a melting point compilation (Tetko et al.; mined from patent text by program, amines drawn as free bases though some values may be those of a salt) are described below.

Where only a bound is given, the exact number is not on record here.

As to `O=C(Cc1ccccc1)NC1CN(C(C(=O)OCc2ccccc2)c2ccccc2)C1=O` (stereo not given), the melting point fell in the range of 96 to 98 °C.

As for `O=C(Nc1ccccc1)N1C(=O)[C@H](O)[C@@H]1c1ccccc1`, the melting point lay within 197 to 200 °C.

In turn, `COC(=O)NN=Cc1nc(-c2cccc(C)c2)[nH]c1C` showed a melting point of 162 to 164 °C.

Turning to `CN(C)CC/C=C1/c2cc(Br)ccc2COc2ccccc21`, the melting point lay within 91 to 100 °C.

As to `N#Cc1cc(F)c(-n2ncc(=O)[nH]c2=O)cc1F`, the melting point is over 250 °C.

`O=C1CC(c2cccc(-c3noc(CCCO)n3)c2)=Nc2ccc(-c3ccc(F)cc3)cc2N1` gave a melting point of 220 to 222 °C.

In the case of `CN1C(=O)CC[C@]2(C)c3ccc(CC(=O)Nc4ccccc4)cc3CC[C@@H]12`, the melting point was in the range of 192 to 195 °C.

Consider `CCOC(=O)CCCCC(=O)Oc1cccc(-c2cn3c(n2)sc2ccccc23)c1`, for which the melting point lay in the range of 90 to 92 °C.

As to `COc1cccc(NC(=O)NCC(=O)N(CC(=O)OC(C)(C)C)c2ccccc2C(=O)c2ccccc2)c1`, the melting point is 153 to 155 °C.

In the case of `Cc1cc(Cn2cnc3c2CC(C(=O)O)N(C(=O)C(c2ccccc2)c2ccccc2)C3)ccc1N(C)C` (stereo not given), the melting point fell in the range of 72 to 75 °C.

`O=C(NCC12CC3CC(CC(C3)C1)C2)c1cc(Cl)ccc1Cl` showed a melting point of 161 to 162 °C.

As to `c1cc(OCC2CCCCC2)ccc1Cc1nnn[nH]1`, the melting point lay in the range of 156 to 158 °C.

`CCOC(=O)CC(=O)Nc1sc(CC)cc1C(=O)c1ccccc1Cl` returned a melting point of 56 to 57 °C.

In turn, `CN(C)C(=O)Sc1ccccc1C(=O)c1cccc(C#N)c1` had a melting point of 86 °C.

With `Cc1ccc([N+](=O)[O-])c(C=C2C(=O)NC(=O)N2C)c1C`, the melting point lay within 195 to 198 °C.

In turn, `CC1CCc2c(N3CCC(NC(=O)OC(C)(C)C)C3)c(F)cc3c(=O)n(N)c(=O)n1c23` (stereo not given) came in with a melting point of 98 to 100 °C.

Regarding `O=C1NC(=O)C(Cc2ccc(OCCNc3ncccn3)cc2)S1` (stereo not given), the melting point stood at 173 °C.

On to `CSc1nc(N)n(-c2ccccc2Oc2ccc(C)cc2O)n1`, for which the melting point fell in the range of 41 to 42 °C.

`Cc1cc(C2(C(F)(F)F)CC(c3ccc(Cl)cc3)=NN2C)ccc1NC(=O)c1cccc(I)c1C(=O)NC(C)C` (stereo not given) registered a melting point of 90 to 92 °C.

`Cc1cccc2c(N3CCS(=O)CC3)nc(N3CCNCC3)cc12`: the melting point is 201 to 203 °C.

On to `CC(C)(C)OC(=O)N1CCCC(Nc2cc(Cl)n[nH]c2=O)C1` (stereo not given), for which the melting point was in the range of 195 to 196 °C.

Consider `CCn1c(=O)c2c(ncn2CCCCC(C)=O)n(CC)c1=O`, for which the melting point fell in the range of 68 to 69 °C.

`CN1C(=O)C(=O)N(CCCCCBr)C1=S` registered a melting point of 48 to 50 °C.

`CCCCNS(=O)(=O)c1ccc(N2CCC(=O)CC2)cc1` gave a melting point of 79 to 82 °C.

`CCCCN(C)Cc1[nH]c2ccccc2c1CC1C(=O)N(c2ccccc2)N=C1C` (stereo not given) displayed a melting point of 180 to 200 °C.

As for `Cc1ccccc1OS(=O)(=O)c1ccc(N2CCCNC2=O)cc1`, the melting point was 161 to 163 °C.

With `COc1cc(Nc2c(C#N)cnc3cc(Cl)c([N+](=O)[O-])cc23)c(C)cc1Cl`, the melting point was in the range of 217 to 219 °C.

With `CCc1c(C(=O)c2cc(C)cc(C)c2)n(CC=CC(=O)OC(C)C)c(=O)[nH]c1=O`, the melting point was 175 to 176 °C.

`O=C1c2ccccc2C(=O)N1CCCC#Cc1ccccn1`: the melting point lay within 127 to 129 °C.

Molecule `CC(=C=CC(=O)O)c1ccc(Cl)cc1` came in with a melting point of 146 to 148 °C.

On to `O=C(CCl)N1CC(c2ccc(F)cc2)Sc2ccccc21` (stereo not given), for which the melting point fell in the range of 122 to 124 °C.

For `CCOc1ccc(-c2nc(C)c(C(=O)O)s2)cc1Cl`, the melting point was 219 to 220 °C.

The molecule `CS(=O)(=O)c1ccc(-c2[nH]c(Cl)cc2-c2ccc(F)cc2)cc1` returned a melting point of 206 to 208 °C.

Regarding `COc1c(C)cnc(Cn2cc(C#CCCCN3CCN(C)CC3)c3c(Cl)nc(N)nc32)c1C`, the melting point was in the range of 160 to 162 °C.

Turning to `O=[N+]([O-])c1oc2c(CO)cccc2c1-c1ccccc1`, the melting point was 128 to 130 °C.

`N#Cc1ccc(NC(=NS(=O)(=O)c2ccccc2)NCC(=O)O)cc1`: the melting point was found to be 133 °C.

For the molecule `CC1(C)CC(S(=O)(=O)Cc2cc3c(cc2Cl)OCO3)=NO1`, the melting point is 170 °C.

`N#Cc1coc2ccc(Br)cc2c1=O` came in with a melting point of 193 to 200 °C.

`Cc1nc2c(N)cccn2c1C` gave a melting point of 148 to 150 °C.

Molecule `O=C1c2cccc3cccc(c23)C(=O)N1CCN1CCC(O)(c2ccccc2)CC1` showed a melting point of 177 to 179 °C.

For `Nc1nc(Nc2cccnc2)sc1C(=O)c1ccc(OC(F)F)cc1`, the melting point is 143 °C.

Molecule `CCOC(=O)c1cc2ccc3c(c4ccccc4n3CC)c2n1C` displayed a melting point of 116 °C.

With `O=C(c1cccnc1)c1cc(-c2cccnc2)c(N2CCOCC2)s1`, the melting point was determined as 145 °C.

With `C=CCOc1ccc(C2=NNC(=O)CC2)cc1`, the melting point is 130 to 132 °C.

In turn, `O=C(O)CCCCCCCCCCCOC(=O)OCC(Cl)(Cl)Cl` showed a melting point of 44.6 to 46.4 °C.

`COc1cccc2sc(C(N)=O)c(N)c12` showed a melting point of 151 to 153 °C.

Regarding `CN(CC(C)(C)[N+](=O)[O-])c1ccc(N(C)CC(C)(C)[N+](=O)[O-])cc1`, the melting point fell in the range of 119 to 121 °C.

On to `O=c1[nH]c(=O)n(C2CC(O)C(CF)O2)cc1C=CBr` (stereo not given), for which the melting point came to 208 °C.

`CC1(C)Cc2cc(OCC(=O)O)c(Cl)c(Cl)c2C1=O` had a melting point of 182 °C.

For the molecule `CC(C)(C)OC(=O)NC1CCN(c2nc3c(cc2F)c(=O)n(N)c(=O)n3C2CC2)C1` (stereo not given), the melting point is 108 to 110 °C.

Turning to `CC1(CSc2ccccc2)COC2(CCCCC2)OO1` (stereo not given), the melting point fell in the range of 45 to 46 °C.

Take `N#CC1=C(COCc2ccccc2)Nc2n[nH]cc2C1c1ccccc1Cl` (stereo not given): the melting point lay within 165 to 166 °C.

As to `CN(C)S(=O)(=O)c1cc(-c2csc(=Nc3ccccc3)n2C)ccc1Cl`, the melting point was 180 °C.

In turn, `CS(=O)(=O)OCCN(CCOS(C)(=O)=O)c1cc(C(=O)O)c([N+](=O)[O-])cc1[N+](=O)[O-]` came in with a melting point of 200 to 210 °C.

`COC(=S)C(Cl)=C(C)Cl` gave a melting point of 27 to 30 °C.

The molecule `C#CC(OC(=O)C1CC1)c1ccc2ccccc2c1` (stereo not given) yielded a melting point of 65 to 66 °C.

Take `COC(=O)c1c(C#N)ccc(NC(=NC#N)Nc2ccccc2Br)c1O`: the melting point was 210 to 211 °C.

For the molecule `CON(C)C(=O)Nc1ccc(CC#N)cc1Cl`, the melting point was found to be 104 °C.

The molecule `COCCOc1ccc(CCCN2C(=O)c3ccccc3C2=O)c(Oc2ncc(C(F)(F)F)cc2Cl)c1` registered a melting point of 101 to 103 °C.

Take `O=P(O)(O)Oc1cccc(-c2cn3c(n2)sc2ccccc23)c1`: the melting point lay in the range of 205 to 208 °C.

Molecule `CC(C)c1cccc(C(C)C)c1NC(=O)NCC1CCc2ccccc21` (stereo not given) showed a melting point of 183 to 185 °C.

For `COc1ccccc1N1CCN(CCCCOc2ccc(-c3cn4ccsc4n3)cc2)CC1`, the melting point fell in the range of 128 to 130 °C.

As for `CCOC(=O)NCC(CC)C(NC(=O)OCC)NC(=O)OCC` (stereo not given), the melting point lay in the range of 120 to 122 °C.

With `CNc1nc(OC(C)C)ccc1[N+](=O)[O-]`, the melting point lay within 75 to 76 °C.

`Nc1cccc(C#CCCN2CCC(O)(c3ccc(Cl)cc3)CC2)c1` returned a melting point of 139 to 140 °C.
